Test results: PubChem BioAssay AID1195 (EPA DSSTox, 2008)

Tested on: human maximum recommended daily dose, FDA database
Experiment: DSSTox (FDAMDD) FDA Maximum (Recommended) Daily Dose Database
Conditions: hits give low values
How it was run: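 MRDD values come from clinical trials with daily oral dosing, usually for 3–12 months, for the average adult, in mg/day converted to mg/kg-bw/day assuming 60 kg. Antineoplastic mg/m2 doses are divided by 37. Activity score maps log10(1/MRDD mmol) onto 1–100.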

[1] = TherapeuticCategory: diagnostic aid
[2] = TherapeuticCategory: antibacterial
[3] = TherapeuticCategory: anticholinergic
[4] = TherapeuticCategory: antihistaminic
[5] = TherapeuticCategory: anesthetic
[6] = TherapeuticCategory: antineoplastic
[7] = TherapeuticCategory: antiulcerative
[8] = TherapeuticCategory: antipsychotic
[9] = TherapeuticCategory: antihypertensive
[10] = TherapeuticCategory: anxiolytic
[11] = TherapeuticCategory: anticonvulsant

CNC(=O)c1c(I)c(C(=O)NCC(=O)Nc2c(I)c(C(=O)O)c(I)c(C(=O)NCCO)c2I)c(I)c(N(C)C(C)=O)c1I
maximum recommended daily dose (mmol/kg-bw/day) [1]: 0.0788

Cc1nnc(SCC2=C(C(=O)O)N3C(=O)[C@@H](NC(=O)Cn4cnnn4)[C@H]3SC2)s1
maximum recommended daily dose (mmol/kg-bw/day) [2]: 0.147

CCC1C(=O)OCC1Cc1cncn1C (stereo not drawn)
maximum recommended daily dose (mmol/kg-bw/day) (TherapeuticCategory: antiglaucoma, miotic): 0.0024

O=C1NC(=O)[C@@]2(CCOc3ccc(F)cc32)N1
maximum recommended daily dose (mmol/kg-bw/day) (TherapeuticCategory: none): 0.0177

C[N+]12CCC(CC1)C(OC(=O)C(O)(c1ccccc1)c1ccccc1)C2 (stereo not drawn)
maximum recommended daily dose (mmol/kg-bw/day) [3]: 0.00077

NCC[C@H](O)C(=O)N[C@@H]1C[C@H](N)[C@@H](O[C@H]2O[C@H](CN)[C@@H](O)[C@H](O)[C@H]2O)[C@H](O)[C@H]1O[C@H]1O[C@H](CO)[C@@H](O)[C@H](N)[C@H]1O
maximum recommended daily dose (mmol/kg-bw/day) [2]: 0.0256

CN(C)CCOC(c1ccc(Cl)cc1)c1ccccn1 (stereo not drawn)
maximum recommended daily dose (mmol/kg-bw/day) [4]: 0.00138

CNC1(c2ccccc2Cl)CCCCC1=O (stereo not drawn)
maximum recommended daily dose (mmol/kg-bw/day) [5]: 0.00841

CC[C@H](C)C(=O)O[C@H]1C[C@@H](C)C=C2C=C[C@H](C)[C@H](CC[C@@H]3C[C@@H](O)CC(=O)O3)[C@H]21
maximum recommended daily dose (mmol/kg-bw/day) (TherapeuticCategory: antihypercholesterolemic): 0.00329

COC(=O)Nc1nc2ccc(C(=O)c3ccc(F)cc3)cc2[nH]1
maximum recommended daily dose (mmol/kg-bw/day) (TherapeuticCategory: anthelmintic): 0.00533

OCC(O)CO
maximum recommended daily dose (mmol/kg-bw/day) [1]: 10.8

CC(C)[N+](C)(CCOC(=O)C1c2ccccc2Oc2ccccc21)C(C)C
maximum recommended daily dose (mmol/kg-bw/day) [3]: 0.00279

C#C[C@]1(O)CC[C@H]2[C@@H]3CCC4=CC(=O)CCC4=C3C=C[C@@]21CC
maximum recommended daily dose (mmol/kg-bw/day) (TherapeuticCategory: antigonadotropin): 0.000135

O=NN(CCCl)C(=O)N[C@@H]1[C@@H](O)[C@H](O)[C@@H](CO)O[C@@H]1O
maximum recommended daily dose (mmol/kg-bw/day) [6]: 0.0129

CC1=C(C/C=C(\C)CCC[C@H](C)CCC[C@H](C)CCCC(C)C)C(=O)c2ccccc2C1=O
maximum recommended daily dose (mmol/kg-bw/day) (TherapeuticCategory: prothrombogenic vitamin): 0.000925

CC(=O)[C@@]1(O)CC[C@H]2[C@@H]3C=C(Cl)C4=CC(=O)CC[C@]4(C)[C@H]3CC[C@@]21C
maximum recommended daily dose (mmol/kg-bw/day) (TherapeuticCategory: progestogen, antineoplastic): 9.18e-05

CC(=O)OCC(=O)[C@@]1(O)CC[C@H]2[C@@H]3C[C@H](C)C4=CC(=O)C=C[C@]4(C)[C@H]3[C@@H](O)C[C@@]21C
maximum recommended daily dose (mmol/kg-bw/day) (TherapeuticCategory: glucocorticoid): 0.01

COc1cc(NS(C)(=O)=O)ccc1Nc1c2ccccc2nc2ccccc12
maximum recommended daily dose (mmol/kg-bw/day) [6]: 0.00823

CCCCCCC(=O)O[C@H]1CC[C@H]2[C@@H]3CCc4cc(O)ccc4[C@H]3CC[C@]12C
maximum recommended daily dose (mmol/kg-bw/day) (TherapeuticCategory: estrogen): 0.0013

CCCCC(C)(O)C/C=C/[C@H]1[C@H](O)CC(=O)[C@@H]1CCCCCCC(=O)OC (stereo partly drawn)
maximum recommended daily dose (mmol/kg-bw/day) [7]: 3.48e-05

CN(C)CCOc1ccc(/C(=C(/CCCl)c2ccccc2)c2ccccc2)cc1
maximum recommended daily dose (mmol/kg-bw/day) (TherapeuticCategory: antiestrogen, antineoplastic): 0.0082

CCC1(c2ccccc2)C(=O)NC(=O)N(C)C1=O (stereo not drawn)
maximum recommended daily dose (mmol/kg-bw/day) (TherapeuticCategory: anticonvulsant, sedative, hypnotic): 0.0406

NCCCC[C@H](N)C(=O)O
maximum recommended daily dose (mmol/kg-bw/day) (TherapeuticCategory: nutrient): 0.684

CN/C(=C\[N+](=O)[O-])NCCSCc1csc(CN(C)C)n1
maximum recommended daily dose (mmol/kg-bw/day) [7]: 0.0151

CCn1nc(C)c2c1C(c1ccccc1)=NCC(=O)N2
maximum recommended daily dose (mmol/kg-bw/day) (TherapeuticCategory: antianxiolytic): 0.00496

C=C1CC[C@H](O)C/C1=C/C=C1\CCC[C@]2(C)[C@@H]([C@H](C)CCCC(C)(C)O)CC[C@@H]12
maximum recommended daily dose (mmol/kg-bw/day) (TherapeuticCategory: calcium regulator): 8.31e-06

CCNC(C)Cc1cccc(C(F)(F)F)c1 (stereo not drawn)
maximum recommended daily dose (mmol/kg-bw/day) (TherapeuticCategory: anorexic): 0.00865

OCC(Br)(Br)Br
maximum recommended daily dose (mmol/kg-bw/day) [5]: 0.354

C[n+]1ccccc1/C=N/O
maximum recommended daily dose (mmol/kg-bw/day) (TherapeuticCategory: cholinesterase inhibitor): 0.193

Cc1cc2nc3c(=O)[nH]c(=O)nc-3n(C[C@H](O)[C@H](O)[C@H](O)CO)c2cc1C
maximum recommended daily dose (mmol/kg-bw/day) (TherapeuticCategory: enzyme cofactor vitamin): 0.00133

CN1CCCCC1CCN1c2ccccc2Sc2ccc(S(C)=O)cc21 (stereo not drawn)
maximum recommended daily dose (mmol/kg-bw/day) [8]: 0.0129

NCCC(O)(P(=O)(O)O)P(=O)(O)O
maximum recommended daily dose (mmol/kg-bw/day) (TherapeuticCategory: antipagetic): 0.00638

CSc1ccc2c(c1)N(CCC1CCCCN1C)c1ccccc1S2 (stereo not drawn)
maximum recommended daily dose (mmol/kg-bw/day) [8]: 0.0359

C#CCN(C)Cc1ccccc1
maximum recommended daily dose (mmol/kg-bw/day) [9]: 0.0209

C[C@H]1CCC[C@H](O)CCCCCc2cc(O)cc(O)c2C(=O)O1
maximum recommended daily dose (mmol/kg-bw/day) (TherapeuticCategory: anabolic): 1.55e-06

C/C(=C(/CCO)SSCC1CCCO1)N(C=O)Cc1cnc(C)nc1N (stereo not drawn)
maximum recommended daily dose (mmol/kg-bw/day) (TherapeuticCategory: enzyme cofactor): 0.00419

OC[C@@H](O)CN1CCN(c2ccccc2)CC1
maximum recommended daily dose (mmol/kg-bw/day) (TherapeuticCategory: antitussive): 0.0127

CN1[C@@H]2CC[C@H]1CC(OC(c1ccccc1)c1ccccc1)C2 (stereo partly drawn)
maximum recommended daily dose (mmol/kg-bw/day) [3]: 0.000325

CN1CCN(C(c2ccccc2)c2ccccc2)CC1
maximum recommended daily dose (mmol/kg-bw/day) (TherapeuticCategory: antiemetic): 0.0125

COC1=C(C(=O)O)N2C(=O)[C@@H](NC(=O)[C@H](N)C3=CCC=CC3)[C@H]2SC1
maximum recommended daily dose (mmol/kg-bw/day) [2]: 0.0911

C[C@]12CC[C@H]3[C@@H](CC=C4C[C@@H](O)CC[C@@]43C)[C@@H]1CC[C@@H]2O
maximum recommended daily dose (mmol/kg-bw/day) (TherapeuticCategory: anabolic): 0.00861

O=c1[nH]c(=O)n([C@H]2C[C@H](O)[C@@H](CO)O2)cc1F
maximum recommended daily dose (mmol/kg-bw/day) (TherapeuticCategory: antiviral, antineoplastic): 0.00244

OC1OC[C@@H](O)[C@H](O)[C@H]1O (stereo partly drawn)
maximum recommended daily dose (mmol/kg-bw/day) (TherapeuticCategory: intestinal function diagnostic aid): 2.78

CN1CCN(C2=Nc3ccccc3Oc3ccc(Cl)cc32)CC1
maximum recommended daily dose (mmol/kg-bw/day) [10]: 0.0127

Cc1ccc(/C(=C\CN2CCCC2)c2cccc(/C=C/C(=O)O)n2)cc1
maximum recommended daily dose (mmol/kg-bw/day) [4]: 0.00153

O=S(=O)(O)CCS
maximum recommended daily dose (mmol/kg-bw/day) (TherapeuticCategory: mucolytic, uroprotective): 0.0281

CCOC(=O)n1ccn(C)c1=S
maximum recommended daily dose (mmol/kg-bw/day) (TherapeuticCategory: thyroid inhibitor): 0.00537

NC[C@H]1O[C@H](O[C@H]2[C@H](O)[C@@H](O)[C@H](N)C[C@@H]2N)[C@H](N)[C@@H](O)[C@@H]1O
maximum recommended daily dose (mmol/kg-bw/day) [2]: 0.31

S=c1nc[nH]c2nc[nH]c12
maximum recommended daily dose (mmol/kg-bw/day) [6]: 0.0164

C[C@](N)(Cc1ccc(O)c(O)c1)C(=O)O
maximum recommended daily dose (mmol/kg-bw/day) [9]: 0.158

NC(=O)NC(=O)Cc1ccccc1
maximum recommended daily dose (mmol/kg-bw/day) [11]: 0.281

COC(=O)CCc1ccc(OCC(O)CNC(C)C)cc1 (stereo not drawn)
maximum recommended daily dose (mmol/kg-bw/day) (TherapeuticCategory: antiarrhythmic): 0.000677

NNc1nncc2ccccc12
maximum recommended daily dose (mmol/kg-bw/day) [9]: 0.0208

CC(=O)O[C@H]1C[C@H](O[C@H]2[C@@H](O)C[C@H](O[C@H]3[C@@H](O)C[C@H](OC4CC[C@@]5(C)C(CC[C@@H]6[C@@H]5C[C@@H](O)[C@]5(C)[C@@H](C7=CC(=O)OC7)[C@@H](O)C[C@]65O)C4)O[C@@H]3C)O[C@@H]2C)O[C@H](C)[C@H]1O[C@@H]1O[C@H](CO)[C@@H](O)[C@H](O)[C@H]1O (stereo partly drawn)
maximum recommended daily dose (mmol/kg-bw/day) (TherapeuticCategory: cardiotonic): 3.33e-05

O=C1CC2(CCCC2)CC(=O)N1CCCCN1CCN(c2ncccn2)CC1
maximum recommended daily dose (mmol/kg-bw/day) [10]: 0.00259

OC[C@@]1(O)OC[C@@H](O)[C@@H](O)[C@@H]1O
maximum recommended daily dose (mmol/kg-bw/day) (TherapeuticCategory: fluid and nutrient replenisher, ferric form as hematinic): 2.31

CC(=O)NCCOC(=O)C(Oc1cccc(C(F)(F)F)c1)c1ccc(Cl)cc1 (stereo not drawn)
maximum recommended daily dose (mmol/kg-bw/day) (TherapeuticCategory: antihyperlipoproteinemic, uricosuric): 0.0402

CCOC(=O)C1=C(C)NC(C)=C(C(=O)OC)C1c1cccc([N+](=O)[O-])c1 (stereo not drawn)
maximum recommended daily dose (mmol/kg-bw/day) [9]: 0.000924

NS(=O)(=O)c1ccc(N2CCCCS2(=O)=O)cc1
maximum recommended daily dose (mmol/kg-bw/day) [11]: 0.0344

CC(=O)OCC1=C(C(=O)O)N2C(=O)[C@@H](NC(=O)Cc3cccs3)[C@H]2SC1
maximum recommended daily dose (mmol/kg-bw/day) [2]: 0.252

CCN(CC)C(=S)S
maximum recommended daily dose (mmol/kg-bw/day) (TherapeuticCategory: immunomodulator, chelating agent): 0.0584

O=C(c1ccc(F)cc1)C1CCN(CCn2c(=O)[nH]c3ccccc3c2=O)CC1
maximum recommended daily dose (mmol/kg-bw/day) [9]: 0.00336

CN(C)C=Nc1c(I)cc(I)c(CCC(=O)O)c1I
maximum recommended daily dose (mmol/kg-bw/day) [1]: 0.167

CC(=O)CCCCn1c(=O)c2c(ncn2C)n(C)c1=O
maximum recommended daily dose (mmol/kg-bw/day) (TherapeuticCategory: vasodilator): 0.0719

CCC(=O)O[C@@H]1CC(=O)O[C@H](C)C/C=C/C=C/[C@H](O[C@@H]2CC[C@H](N(C)C)[C@@H](C)O2)[C@H](C)C[C@H](CC=O)[C@H](O[C@@H]2O[C@H](C)[C@@H](O[C@H]3C[C@@](C)(O)[C@@H](O)[C@H](C)O3)[C@H](N(C)C)[C@H]2O)[C@H]1OC
maximum recommended daily dose (mmol/kg-bw/day) [2]: 0.0742

Cc1ccc(O)c([C@H](CCN(C(C)C)C(C)C)c2ccccc2)c1
maximum recommended daily dose (mmol/kg-bw/day) (TherapeuticCategory: cholinergic (acetyl-choline) receptor blockers): 0.0246

Cc1oncc1C(=O)Nc1ccc(C(F)(F)F)cc1
maximum recommended daily dose (mmol/kg-bw/day) (TherapeuticCategory: antirheuematic, immunosuppressant): 0.00123

COc1cccc2c1C(=O)c1c(O)c3c(c(O)c1C2=O)C[C@@](O)(C(=O)CO)C[C@@H]3O[C@H]1C[C@H](N)[C@@H](O)[C@H](C)O1
maximum recommended daily dose (mmol/kg-bw/day) [6]: 0.00447

CC(C)C[C@H]1C(=O)N2CCC[C@H]2[C@]2(O)O[C@](NC(=O)[C@@H]3C=C4c5cccc6[nH]c(Br)c(c56)C[C@H]4N(C)C3)(C(C)C)C(=O)N12
maximum recommended daily dose (mmol/kg-bw/day) (TherapeuticCategory: enzyme inhibitor, antiparkinsonian): 0.00255

CCCCCCc1ccc(O)cc1O
maximum recommended daily dose (mmol/kg-bw/day) (TherapeuticCategory: antihelmintic, antiseptic): 0.0858

OC[C@H]1O[C@H](O[C@H]2[C@H](O)[C@@H](O)[C@H](O)O[C@@H]2CO)[C@H](O)[C@@H](O)[C@@H]1O
maximum recommended daily dose (mmol/kg-bw/day) (TherapeuticCategory: none): 0.292

CCCCC(=O)O[C@H]1CC[C@H]2[C@@H]3CCc4cc(O)ccc4[C@H]3CC[C@]12C
maximum recommended daily dose (mmol/kg-bw/day) (TherapeuticCategory: estrogen): 0.0014

CN1CCN(C2=Nc3ccccc3Sc3ccc(Cl)cc32)CC1
maximum recommended daily dose (mmol/kg-bw/day) [8]: 0.000727
